Measurements as given in PMC9762331 (Cancer Discovery, 2021).
Entries after “also recorded” stand apart in the source; their conditions may differ.

What was measured:
[1] = test system: primary human hepatocytes; test: Cytotoxicity in primary human hepatocytes; type: cell-based; settings: tested up to 100 μmol/L
[2] = test system: SW48 isogenic PIK3CA-mutant and parental WT cells; test: Potency comparison in SW48 isogenic mutant versus WT cells; type: cell-based, human; settings: for potency differential in mutant versus WT isogenic SW48 cells: viability EC50, mutant versus WT
[3] = biological target: membrane-associated p110a in p110a-mutant HCC1954 xenograft model (Homo sapiens, UniProt P42336, H1047R); test: Membrane-associated p110a in HCC1954 xenograft tumors; type: in vivo, mouse
[4] = test system: HER2-positive PIK3CA-mutant breast tumor lines (n = 6); test: ATP cell viability, HER2-positive PIK3CA-mutant breast lines; type: cell-based; settings: HER2 amplified PIK3CA-mutant cell lines, 5 days
[5] = test system: HCC1954, KPL-4, and HCI-003 PDX; test: Efficacy in PIK3CA-mutant xenograft and PDX models; type: in vivo, mouse; settings: HCC1954, KPL-4, HCI-003 PDX; dosed orally and daily
[6] = letrozole ± palbociclib portion of the study; cited from earlier work
[7] = test system: PIK3CA E545K-mutant MCF7 cells; test: CyQuant growth rate inhibition; type: cell-based; settings: all combination treatments (± E2, ± 0.15 μmol/L palbociclib)
[8] = test system: pAKT in HER2-amplified PIK3CA-mutant cells (HCC1954, HCC202, MDA-MB-453); test: pAKT Western blot time course; type: cell-based; settings: 0.5 μmol/L GDC-0077 or 1 μmol/L BYL719
[9] = test system: HER2-negative PIK3CA-mutant breast tumor lines (n = 10); test: ATP cell viability, HER2-negative PIK3CA-mutant breast lines; type: cell-based; settings: 5 days
[10] = biological target: H1047R mutant p110a in HCC1954 parental cells (Homo sapiens, UniProt P42336, H1047R); settings: 24 hours, 500 nmol/L, P = 0.00016
[11] = test system: p110a in PIK3CA-mutant breast cancer lines; settings: treatment for 24 hours
[12] = biological target: p110a protein in PIK3CA H1047R-mutant HCC1954 cells (Homo sapiens, UniProt P42336, H1047R); test: p110a Western blot, HCC1954 cells; type: cell-based; settings: treatment up to 8 hours
[13] = biological target: p110a in PIK3CA-WT HDQ-P1 cells (Homo sapiens, UniProt P42336); settings: Western blot, 8 hours
Chain of p110a in PIK3CA-WT HDQ-P1 cells (P42336 whole entry): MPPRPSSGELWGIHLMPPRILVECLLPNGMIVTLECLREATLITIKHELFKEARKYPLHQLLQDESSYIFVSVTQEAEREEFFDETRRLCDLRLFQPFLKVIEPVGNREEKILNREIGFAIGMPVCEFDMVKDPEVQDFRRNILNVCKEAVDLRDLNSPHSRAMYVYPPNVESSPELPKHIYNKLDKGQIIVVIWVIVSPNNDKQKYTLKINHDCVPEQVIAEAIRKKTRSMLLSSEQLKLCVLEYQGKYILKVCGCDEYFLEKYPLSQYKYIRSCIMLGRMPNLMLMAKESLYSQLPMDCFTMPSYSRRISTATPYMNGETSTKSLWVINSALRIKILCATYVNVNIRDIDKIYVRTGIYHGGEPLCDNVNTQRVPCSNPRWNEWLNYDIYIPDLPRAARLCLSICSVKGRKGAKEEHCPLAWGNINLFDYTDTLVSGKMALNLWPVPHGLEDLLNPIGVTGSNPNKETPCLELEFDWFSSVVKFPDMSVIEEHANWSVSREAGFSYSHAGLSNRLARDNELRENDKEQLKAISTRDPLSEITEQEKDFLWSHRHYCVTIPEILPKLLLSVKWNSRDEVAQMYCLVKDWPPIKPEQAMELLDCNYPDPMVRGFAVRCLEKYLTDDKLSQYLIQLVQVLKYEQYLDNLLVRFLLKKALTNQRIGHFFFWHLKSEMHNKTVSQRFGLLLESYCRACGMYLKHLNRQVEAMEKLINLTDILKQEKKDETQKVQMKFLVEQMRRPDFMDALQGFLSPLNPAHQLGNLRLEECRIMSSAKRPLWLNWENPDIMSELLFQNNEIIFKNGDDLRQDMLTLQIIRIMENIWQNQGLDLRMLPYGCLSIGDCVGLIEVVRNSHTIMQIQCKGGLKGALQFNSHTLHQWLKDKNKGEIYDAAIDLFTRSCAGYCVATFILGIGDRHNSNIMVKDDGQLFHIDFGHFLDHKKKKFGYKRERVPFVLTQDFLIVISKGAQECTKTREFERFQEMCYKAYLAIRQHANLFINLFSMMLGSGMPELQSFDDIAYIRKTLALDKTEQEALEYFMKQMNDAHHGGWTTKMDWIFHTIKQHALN
Chain of p110a in PIK3CA-WT HDQ-P1 cells (P27986 whole entry partner): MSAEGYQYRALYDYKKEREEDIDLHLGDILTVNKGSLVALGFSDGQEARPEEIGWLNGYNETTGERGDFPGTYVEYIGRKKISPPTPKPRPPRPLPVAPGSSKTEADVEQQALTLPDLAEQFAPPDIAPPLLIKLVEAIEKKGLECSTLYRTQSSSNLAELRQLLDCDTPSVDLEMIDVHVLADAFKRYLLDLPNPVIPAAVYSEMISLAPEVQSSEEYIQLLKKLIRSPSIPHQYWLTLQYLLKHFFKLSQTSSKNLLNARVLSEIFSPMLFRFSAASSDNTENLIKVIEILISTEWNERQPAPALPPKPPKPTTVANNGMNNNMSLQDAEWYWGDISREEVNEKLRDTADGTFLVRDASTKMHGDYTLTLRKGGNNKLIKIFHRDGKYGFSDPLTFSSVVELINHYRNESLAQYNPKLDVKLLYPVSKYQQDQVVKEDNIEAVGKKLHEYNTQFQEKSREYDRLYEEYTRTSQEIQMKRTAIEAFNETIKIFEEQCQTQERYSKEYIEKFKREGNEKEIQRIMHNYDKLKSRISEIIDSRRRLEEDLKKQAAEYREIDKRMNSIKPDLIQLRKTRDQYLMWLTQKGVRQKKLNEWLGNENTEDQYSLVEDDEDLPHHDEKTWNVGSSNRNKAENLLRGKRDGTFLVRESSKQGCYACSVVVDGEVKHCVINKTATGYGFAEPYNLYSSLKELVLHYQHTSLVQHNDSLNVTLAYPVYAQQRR

Chain of H1047R mutant p110a in HCC1954 parental cells (P42336 whole entry H1047R): as the sequence (P42336 whole entry) above, with H1047R counted along it
Chain of H1047R mutant p110a in HCC1954 parental cells (O00459 whole entry partner): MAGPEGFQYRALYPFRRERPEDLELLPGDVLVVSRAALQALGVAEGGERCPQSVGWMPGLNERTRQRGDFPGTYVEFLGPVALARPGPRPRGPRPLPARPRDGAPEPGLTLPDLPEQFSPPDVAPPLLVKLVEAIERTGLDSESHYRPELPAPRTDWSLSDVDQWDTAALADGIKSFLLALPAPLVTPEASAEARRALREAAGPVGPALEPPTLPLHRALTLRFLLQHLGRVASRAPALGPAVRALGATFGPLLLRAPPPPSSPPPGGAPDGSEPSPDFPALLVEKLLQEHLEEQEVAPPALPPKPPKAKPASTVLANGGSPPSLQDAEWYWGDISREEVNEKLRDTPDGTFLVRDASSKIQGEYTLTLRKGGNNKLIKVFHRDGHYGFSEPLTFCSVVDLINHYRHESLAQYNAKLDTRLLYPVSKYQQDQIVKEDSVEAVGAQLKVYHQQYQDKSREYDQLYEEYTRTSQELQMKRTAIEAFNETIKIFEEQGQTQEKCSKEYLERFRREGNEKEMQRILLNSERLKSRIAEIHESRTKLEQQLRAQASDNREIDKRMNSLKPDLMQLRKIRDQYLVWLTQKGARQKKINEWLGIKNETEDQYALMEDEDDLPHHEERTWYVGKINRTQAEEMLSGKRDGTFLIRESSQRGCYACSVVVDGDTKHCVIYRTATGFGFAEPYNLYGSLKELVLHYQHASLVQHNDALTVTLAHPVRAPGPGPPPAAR
Chain of membrane-associated p110a in p110a-mutant HCC1954 xenograft model (P42336 whole entry H1047R): as the sequence (P42336 whole entry) above, with H1047R counted along it
Chain of p110a protein in PIK3CA H1047R-mutant HCC1954 cells (P42336 whole entry H1047R): as the sequence (P42336 whole entry) above, with H1047R counted along it

Cc1nc(NC(=O)N2CCC[C@H]2C(N)=O)sc1-c1ccnc(C(C)(C)C(F)(F)F)c1 [Alpelisib, reference compound]
cytotoxic effects in primary human hepatocytes [1]: no cytotoxic effects | potency differential in mutant versus WT isogenic SW48 cells [2]: not have a potency differential

C[C@H](Nc1ccc2c(c1)OCCn1cc(N3C(=O)OC[C@H]3C(F)F)nc1-2)C(N)=O [GDC-0077]
p110a protein expression in HCC1954 xenograft tumors ([3]; single oral dose of 50 mg/kg): depleted p110a protein expression for up to 8 hours | fold difference between the mean IC50 values, GDC-0077 versus BYL719 [4]: ~20 fold | tumor response at the MTD in PIK3CA-mutant xenograft and PDX models [5]: tumor regressions | drug–drug interactions [6]: No drug–drug interactions were observed | GDC-0077 concentrations giving negative GR values (cytotoxic response) [7]: ≥ 0.12 µmol/L | pAKT / pathway inhibition over the 24-hour treatment time [8]: sustained inhibition of pAKT; also recorded: sustained pathway inhibition | cytotoxic effects in primary human hepatocytes [1]: no cytotoxic effects | fold difference between the mean IC50 values, GDC-0077 versus BYL719 [9]: ~6 fold | mutant-specific (H1047R) p110a peptide by mass spectrometry [10]: loss of the mutant-specific peptide | p110a degradation at clinically relevant concentrations [11]: resulted in p110a degradation

CC(C)n1ncnc1-c1cn2c(n1)-c1ccc(O[C@@H](C)C(N)=O)cc1OCC2 [GNE-326, (S)-2-((2-(1-Isopropyl-1H-1,2,4-triazol-5-yl)-5,6-dihydrobenzo[f]imidazo[1,2-d][1,4]oxazepin-9-yl)oxy)propanamide]
potency differential in mutant versus WT isogenic SW48 cells [2]: not have a potency differential

CS(=O)(=O)N1CCN(Cc2cc3nc(-c4cccc5[nH]ncc45)nc(N4CCOCC4)c3s2)CC1 [Pictilisib, 2-(1H-indazol-4-yl)-6-(4-methanesulfonyl-piperazin-1-ylmethyl)-4-morpholin-4-yl-thieno[3,2-d]pyrimidine]
potency differential in mutant versus WT isogenic SW48 cells [2]: comparable EC50

Cc1nc(-c2cn3c(n2)-c2ccc(-c4cnn(C(C)(C)C(N)=O)c4)cc2OCC3)n(C(C)C)n1 [Taselisib]
membrane-associated p110a in HCC1954 xenograft tumors ([3]; 4 hours after a single oral dose of 15 mg/kg): depleted | cytotoxic effects in primary human hepatocytes [1]: no cytotoxic effects | p110a protein level in HCC1954 cells [12]: dose-dependent depletion of p110a protein | p110a protein level in HDQ-P1 cells [13]: No significant change | mutant-specific (H1047R) p110a peptide by mass spectrometry [10]: loss of the mutant-specific peptide | potency (EC50) increase in PIK3CA-mutant cells versus parental WT SW48 cells ([2]; H1047R or E545K knock-in versus parental): 3 fold | p110a degradation at clinically relevant concentrations [11]: resulted in p110a degradation
